According to patent US20090311217A1, “3-SUBSTITUTED-1H-INDOLE COMPOUNDS, THEIR USE AS MTOR KINASE AND PI3 KINASE INHIBITORS, AND THEIR SYNTHESES” (priority 2008, published 2009):

Tests used:
Format in all cases: biochemical
PI3K-alpha = PI3K-alpha (Homo sapiens, UniProt P42336); assay: PI3K-alpha fluorescence polarization assay; settings: read-out: PI3Kα Avg. IC50
PI3K-gamma = PI3K-gamma (Homo sapiens, UniProt P48736); assay: PI3K-gamma fluorescence polarization assay; settings: PI3Kγ Avg. IC50
PI3K-gamma, sequence (P48736 whole entry, species assumed, the tested form may be a part): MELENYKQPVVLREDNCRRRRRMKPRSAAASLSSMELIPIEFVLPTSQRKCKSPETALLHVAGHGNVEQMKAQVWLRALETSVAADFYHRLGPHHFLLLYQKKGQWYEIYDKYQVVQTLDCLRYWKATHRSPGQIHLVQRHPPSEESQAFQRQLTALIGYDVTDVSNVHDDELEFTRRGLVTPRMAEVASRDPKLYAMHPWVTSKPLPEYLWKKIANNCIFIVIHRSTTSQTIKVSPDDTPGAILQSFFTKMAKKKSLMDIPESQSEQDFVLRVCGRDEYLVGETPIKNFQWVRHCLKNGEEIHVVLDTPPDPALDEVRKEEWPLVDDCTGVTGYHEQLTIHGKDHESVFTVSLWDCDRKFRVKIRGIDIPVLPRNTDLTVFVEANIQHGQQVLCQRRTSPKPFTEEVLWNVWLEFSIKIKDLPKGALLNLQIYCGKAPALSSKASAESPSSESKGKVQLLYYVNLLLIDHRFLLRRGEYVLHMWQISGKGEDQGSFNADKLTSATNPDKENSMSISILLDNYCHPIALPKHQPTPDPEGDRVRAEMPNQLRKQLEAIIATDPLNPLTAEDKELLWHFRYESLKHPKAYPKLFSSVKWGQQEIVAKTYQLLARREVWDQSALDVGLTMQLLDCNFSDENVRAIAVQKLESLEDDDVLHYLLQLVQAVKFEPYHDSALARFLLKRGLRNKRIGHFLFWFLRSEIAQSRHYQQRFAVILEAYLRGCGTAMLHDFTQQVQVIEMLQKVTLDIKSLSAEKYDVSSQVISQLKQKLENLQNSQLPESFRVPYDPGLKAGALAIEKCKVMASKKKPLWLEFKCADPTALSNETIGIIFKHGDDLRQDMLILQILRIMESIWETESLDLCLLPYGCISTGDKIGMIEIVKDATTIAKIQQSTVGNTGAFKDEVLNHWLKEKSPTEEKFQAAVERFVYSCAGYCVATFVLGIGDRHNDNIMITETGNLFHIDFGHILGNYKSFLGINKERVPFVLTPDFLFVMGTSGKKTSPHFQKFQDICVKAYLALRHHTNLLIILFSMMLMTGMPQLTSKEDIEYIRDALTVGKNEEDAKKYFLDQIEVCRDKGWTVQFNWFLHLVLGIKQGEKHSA
How it was run: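 Inhibition is derived from a polarization signal: after a 1 h, 25° C kinase step (25 μM ATP, 2.5 μM diC8-PIP2, pH 7), EDTA stops the reaction and the GRP1 PH domain/TMR-IP4 pair reports lipid product.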

human TOR = target: T1, human TOR (Homo sapiens, UniProt P42345); assay: mTOR enzyme assay (DELFIA, His6-S6K substrate); settings: read-out: mTOR Kinase Avg. IC50
T1 construct: FLAG

PI3K-alpha, sequence (P42336 whole entry, species assumed): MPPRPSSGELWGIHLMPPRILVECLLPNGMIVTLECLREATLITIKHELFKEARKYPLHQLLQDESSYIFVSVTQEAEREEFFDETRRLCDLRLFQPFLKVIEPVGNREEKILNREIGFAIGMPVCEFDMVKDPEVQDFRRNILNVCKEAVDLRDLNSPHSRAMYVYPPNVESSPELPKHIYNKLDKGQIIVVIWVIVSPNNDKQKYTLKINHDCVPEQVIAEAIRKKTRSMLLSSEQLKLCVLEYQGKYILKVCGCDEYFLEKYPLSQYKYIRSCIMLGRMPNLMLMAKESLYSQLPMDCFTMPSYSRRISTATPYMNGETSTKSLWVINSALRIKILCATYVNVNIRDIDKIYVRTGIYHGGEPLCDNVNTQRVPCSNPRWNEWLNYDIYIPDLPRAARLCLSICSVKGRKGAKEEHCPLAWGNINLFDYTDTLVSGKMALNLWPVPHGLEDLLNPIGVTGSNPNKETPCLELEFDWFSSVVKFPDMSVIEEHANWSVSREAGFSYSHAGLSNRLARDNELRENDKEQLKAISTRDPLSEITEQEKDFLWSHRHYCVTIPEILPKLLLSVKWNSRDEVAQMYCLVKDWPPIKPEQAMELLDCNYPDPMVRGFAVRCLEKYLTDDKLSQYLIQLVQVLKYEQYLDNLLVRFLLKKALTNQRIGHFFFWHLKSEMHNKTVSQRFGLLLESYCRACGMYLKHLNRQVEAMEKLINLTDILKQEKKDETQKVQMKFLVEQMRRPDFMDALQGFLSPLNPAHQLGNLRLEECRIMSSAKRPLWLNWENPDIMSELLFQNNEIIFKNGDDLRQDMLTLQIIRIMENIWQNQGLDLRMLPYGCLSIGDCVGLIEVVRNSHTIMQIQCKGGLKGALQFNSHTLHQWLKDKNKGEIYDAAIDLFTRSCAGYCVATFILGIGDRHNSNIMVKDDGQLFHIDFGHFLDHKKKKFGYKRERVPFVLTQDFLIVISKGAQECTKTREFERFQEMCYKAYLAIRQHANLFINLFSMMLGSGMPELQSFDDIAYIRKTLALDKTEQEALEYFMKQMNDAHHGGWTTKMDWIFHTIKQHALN
PI3K-alpha, sequence (P27986 whole entry partner, species assumed): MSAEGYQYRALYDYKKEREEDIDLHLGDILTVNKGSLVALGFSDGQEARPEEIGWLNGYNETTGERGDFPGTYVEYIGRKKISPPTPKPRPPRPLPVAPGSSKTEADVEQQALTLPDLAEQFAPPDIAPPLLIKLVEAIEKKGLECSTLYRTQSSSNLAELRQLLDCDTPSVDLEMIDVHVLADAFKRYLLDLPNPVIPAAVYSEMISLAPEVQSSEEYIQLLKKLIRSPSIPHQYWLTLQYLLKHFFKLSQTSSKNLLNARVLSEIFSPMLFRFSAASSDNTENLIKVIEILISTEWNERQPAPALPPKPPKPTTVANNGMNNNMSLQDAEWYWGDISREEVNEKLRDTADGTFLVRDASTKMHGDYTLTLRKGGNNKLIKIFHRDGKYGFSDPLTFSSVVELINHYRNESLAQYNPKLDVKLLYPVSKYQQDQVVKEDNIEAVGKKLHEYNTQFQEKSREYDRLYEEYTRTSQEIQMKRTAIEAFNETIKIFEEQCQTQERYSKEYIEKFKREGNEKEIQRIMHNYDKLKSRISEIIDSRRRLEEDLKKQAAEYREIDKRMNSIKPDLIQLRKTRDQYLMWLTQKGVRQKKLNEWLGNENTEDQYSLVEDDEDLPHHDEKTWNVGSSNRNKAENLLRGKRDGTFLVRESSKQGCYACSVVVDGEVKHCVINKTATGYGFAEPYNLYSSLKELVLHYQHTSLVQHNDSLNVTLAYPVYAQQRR

Structure (SMILES)	IC50 (PI3K-alpha) [µM]	IC50 (PI3K-gamma) [µM]	IC50 (human TOR) [µM]
COc1ccc2c(c1)c(/C=C1\Oc3ccc(NC(=O)Nc4ccc(NCCN(C)C)cc4)cc3C1=O)c(C)n2CCN1CCN(C)CC1 [Compound 684, 1-(4-{[2-(dimethylamino)ethyl]amino}phenyl)-3-[(2Z)-2-({5-methoxy-2-methyl-1-[2-(4-methylpiperazin-1-yl)ethyl]-1H-indol-3-yl}methylidene)-3-oxo-2,3-dihydro-1-benzofuran-5-yl]urea]	0.007	1.72	0.019
CNC(=O)Nc1ccc2c(c1)C(=O)/C(=C/c1c(-c3cnn(CC(C)C)c3)[nH]c3c(F)cc(OC)cc13)O2 [Compound 717, 1-[(2Z)-2-({7-fluoro-5-methoxy-2-[1-(2-methylpropyl)-1H-pyrazol-4-yl]-1H-indol-3-yl}methylidene)-3-oxo-2,3-dihydro-1-benzofuran-5-yl]-3-methylurea]	0.00265	0.008	0.007
CNC(=O)Nc1ccc2c(c1)C(=O)/C(=C/c1c(C(=O)NC(C)(C)CO)[nH]c3ccc(OC)cc13)O2 [Compound 622, N-(2-hydroxy-1,1-dimethylethyl)-5-methoxy-3-[(Z)-{5-[(methylcarbamoyl)amino]-3-oxo-1-benzofuran-2(3H)-ylidene}methyl]-1H-indole-2-carboxamide]	0.008	0.039	0.096
CC(C)NC(=O)c1ccc(-c2cccc3c2c(/C=C2\Oc4cc(O)cc(O)c4C2=O)cn3C)cc1 [Example 395, 4-{3-[(Z)-(4,6-dihydroxy-3-oxo-1-benzofuran-2(3H)-ylidene)methyl]-1-methyl-1H-indol-4-yl}-N-isopropylbenzamide]	0.582	3.89	0.095
COc1ccc2[nH]c(-c3c(C)nn(C)c3C)c(/C=C3\Oc4ccc(NC(=O)Nc5ccc(C(=O)N(C)CCN(C)C)cc5)cc4C3=O)c2c1 [Compound 682, N-[2-(dimethylamino)ethyl]-4-({[(2Z)-2-{[5-methoxy-2-(1,3,5-trimethyl-1H-pyrazol-4-yl)-1H-indol-3-yl]methylidene}-3-oxo-2,3-dihydro-1-benzofuran-5-yl]carbamoyl}amino)-N-methylbenzamide]	0.0003	0.00198	0.001
O=C1C(=Cc2c(-c3ccccc3)n(CCC3CCNCC3)c3ccccc23)Oc2cc(O)cc(O)c21 [Example 158, 4,6-dihydroxy-2-{[2-phenyl-1-(2-piperidin-4-ylethyl)-1H-indol-3-yl]methylene}-1-benzofuran-3(2H)-one]	2.28	4.88	4.6
COc1ccc2c(c1)c(/C=C1\Oc3c(ccc(O)c3F)C1=O)c(C)n2CCCN(C)C [Example 449, (2Z)-2-({1-[3-(Dimethylamino)propyl]-5-methoxy-2-methyl-1H-indol-3-yl}methylene)-7-fluoro-6-hydroxy-1-benzofuran-3(2H)-one]	0.166	> 11	> 20
CCN1CCN(C(=O)c2ccc(NC(=O)Nc3ccc4c(c3)C(=O)/C(=C/c3c(-c5c(C)nn(C)c5C)[nH]c5ccc(OC)cc35)O4)cc2)CC1 [Compound 699, 1-{4-[(4-ethylpiperazin-1-yl)carbonyl]phenyl}-3-[(2Z)-2-{[5-methoxy-2-(1,3,5-trimethyl-1H-pyrazol-4-yl)-1H-indol-3-yl]methylidene}-3-oxo-2,3-dihydro-1-benzofuran-5-yl]urea]	0.0004	0.003	0.005
N#CCCCCCn1c(-c2ccccc2)c(C=C2Oc3cc(O)cc(O)c3C2=O)c2ccccc21 [Example 225, 6-{3-[(4,6-dihydroxy-3-oxo-1-benzofuran-2(3H)-ylidene)methyl]-2-phenyl-1H-indol-1-yl}hexanenitrile]	0.968	> 10	0.7
Cn1cc(C=C2Oc3cc(O)cc(O)c3C2=O)c2cc(Br)ccc21 [Example 248, 2-[(5-bromo-1-methyl-1H-indol-3-yl)methylene]-4,6-dihydroxy-1-benzofuran-3(2H)-one]	1.04	> 10	> 20
Cn1cc(/C=C2\Oc3cc(O)cc(O)c3C2=O)c2c(-c3ccc(NC(=O)NC4CC4)cc3)cccc21 [Example 401, 1-cyclopropyl-3-(4-{3-[(Z)-(4,6-dihydroxy-3-oxo-1-benzofuran-2(3H)-ylidene)methyl]-1-methyl-1H-indol-4-yl}phenyl)urea]	0.267	2.68	0.0615
CCn1c(C2CCCCC2)c(/C=C2\Oc3ccc(NC(=O)Nc4ccc(C(=O)N5CCN(C)CC5)cc4)cc3C2=O)c2cc(OC)ccc21 [Compound 645, 1-{(2Z)-2-[(2-cyclohexyl-1-ethyl-5-methoxy-1H-indol-3-yl)methylene]-3-oxo-2,3-dihydro-1-benzofuran-5-yl}-3-{4-[(4-methylpiperazin-1-yl)carbonyl]phenyl}urea]	0.0018	0.055	0.185
CCn1c(C)c(/C=C2\Oc3ccc(NC(=O)Nc4ccc(N(C)CCCN(C)C)cc4)cc3C2=O)c2cc(OC)ccc21 [Compound 653, 1-(4-{[3-(dimethylamino)propyl](methyl)amino}phenyl)-3-{(2Z)-2-[(1-ethyl-5-methoxy-2-methyl-1H-indol-3-yl)methylene]-3-oxo-2,3-dihydro-1-benzofuran-5-yl}urea]	0.004	0.021	0.125
Cn1c(-c2ccc(F)cc2)c(C=C2Oc3cc(O)cc(O)c3C2=O)c2ccccc21 [Example 200, 2-{[2-(4-fluorophenyl)-1-methyl-1H-indol-3-yl]methylene}-4,6-dihydroxy-1-benzofuran-3(2H)-one]	1.09	3.07	0.22
CNC(=O)Nc1ccc2c(c1)C(=O)/C(=C/c1c(-c3c(C)nn(C)c3C)[nH]c3c(C(F)(F)F)cc(OC)cc13)O2 [Compound 725, 1-[(2Z)-2-{[5-methoxy-7-(trifluoromethyl)-2-(1,3,5-trimethyl-1H-pyrazol-4-yl)-1H-indol-3-yl]methylidene}-3-oxo-2,3-dihydro-1-benzofuran-5-yl]-3-methylurea]	0.013	0.074	0.53
CNCCNC(=O)c1ccc(NC(=O)Nc2ccc3c(c2)C(=O)/C(=C/c2c(C4CCCCC4)[nH]c4ccc(OC)cc24)O3)cc1 [Compound 660, 4-[({(2Z)-2-[(2-cyclohexyl-5-methoxy-1H-indol-3-yl)methylene]-3-oxo-2,3-dihydro-1-benzofuran-5-yl}carbamoyl)amino]-N-[2-(methylamino)ethyl]benzamide]	0.0003	0.00295	0.004
Cn1cc(/C=C2\Oc3cc(O)cc(O)c3C2=O)c2c(-c3ccc(NC(=O)N4CCOCC4)cc3)cccc21 [Example 404, N-(4-{3-[(Z)-(4,6-dihydroxy-3-oxo-1-benzofuran-2(3H)-ylidene)methyl]-1-methyl-1H-indol-4-yl}phenyl)morpholine-4-carboxamide]	0.935	1.65	0.061

Other lines, results leading:

IC50 (PI3K-alpha) [µM]	IC50 (PI3K-gamma) [µM]	IC50 (human TOR) [µM]	Structure (SMILES)
0.114	6.87	> 20	COc1ccc2c(c1)c(/C=C1\Oc3cc(O)c(Br)cc3C1=O)c(C)n2CCCN(C)C [Example 350, (2Z)-5-Bromo-2-({1-[3-(dimethylamino)propyl]-5-methoxy-2-methyl-1H-indol-3-yl}methylene)-6-hydroxy-1-benzofuran-3(2H)-one]
3.66	> 10	0.06	Cn1c(-c2ccccn2)c(C=C2Oc3cc(O)cc(O)c3C2=O)c2ccccc21 [Example 223, 4,6-dihydroxy-2-[(1-methyl-2-pyridin-2-yl-1H-indol-3-yl)methylene]-1-benzofuran-3(2H)-one]
0.0007	0.005	0.11	CCn1c(C)c(/C=C2\Oc3ccc(NC(=O)Nc4ccc(C(=O)N5CCOCC5)cc4)cc3C2=O)c2cc(OC)ccc21 [Compound 686, 1-{(2Z)-2-[(1-ethyl-5-methoxy-2-methyl-1H-indol-3-yl)methylidene]-3-oxo-2,3-dihydro-1-benzofuran-5-yl}-3-[4-(morpholin-4-ylcarbonyl)phenyl]urea]
0.007	0.105	0.008	CNC(=O)Nc1ccc2c(c1)C(=O)/C(=C/c1c(Br)[nH]c3ccc(OC)cc13)O2 [Compound 692, 1-{(2Z)-2-[(2-bromo-5-methoxy-1H-indol-3-yl)methylidene]-3-oxo-2,3-dihydro-1-benzofuran-5-yl}-3-methylurea]
1.12	7.66	0.085	Cn1c(-c2ccc(O)cc2)c(C=C2Oc3cc(O)cc(O)c3C2=O)c2ccccc21 [Example 193, 4,6-dihydroxy-2-{[2-(4-hydroxyphenyl)-1-methyl-1H-indol-3-yl]methylene}-1-benzofuran-3(2H)-one]
0.0013	0.0255	0.05	CNC(=O)Nc1ccc2c(c1)C(=O)/C(=C/c1c(-c3cccc(CN(C)C)c3)[nH]c3ccc(OC)cc13)O2 [Compound 629, 1-{(2Z)-2-[(2-{3-[(dimethylamino)methyl]phenyl}-5-methoxy-1H-indol-3-yl)methylidene]-3-oxo-2,3-dihydro-1-benzofuran-5-yl}-3-methylurea]
0.757	7.51	3.8	Cn1cc(C=C2Oc3cc(O)cc(O)c3C2=O)c2cc(F)ccc21 [Example 227, 2-[(5-fluoro-1-methyl-1H-indol-3-yl)methylene]-4,6-dihydroxy-1-benzofuran-3(2H)-one]
0.77	2.65	0.17	CCn1c(-c2ccccc2)c(C=C2Oc3cc(O)cc(O)c3C2=O)c2ccccc21 [Example 213, 2-[(1-ethyl-2-phenyl-1H-indol-3-yl)methylene]-4,6-dihydroxy-1-benzofuran-3(2H)-one]
